{"source": "patent US12662485B2", "about": "“Substituted pyrazolo[4,3-D]pyrimidines as gut-targeted phosphodiesterase inhibitors” (priority 2020, dated 2026)", "key": {"[1]": {"settings": "mouse, in vivo"}, "colon epithelium": {"tested_on": "colon epithelium", "assay": "Epithelial proliferation in the colon by flow cytometry using Ki67", "type": "in vivo", "settings": "mice, drug in drinking water 8 days; control 21%", "method": "Toxicity studies and histology. […] The body weight was measured daily. After 8 days the animals were sacrificed and the epithelial proliferation in the colon was measured by flow cytometry using Ki67. Box plots show median and whiskers are min and max values. The p values were generated using a one-way ANOVA with Dunnett's multiple comparisons test. For FIGS. 5A and 5C, n=5."}, "PDE5": {"target": "T1, PDE5 (Homo sapiens, UniProt O76074)", "T1 construct": "host or cells: LS-174T colon cancer reporter cell line", "assay": "Reporter cell assay: LS-174T cells expressing PKG2 and PDE5, low-dose linaclotide, phospho-VASP Western blot", "type": "cell-based", "settings": "LS-174T reporter cells", "description": "Results shown are representative of at least 3 independent experiments.\nWestern blot and reporter cell lines. […] Results shown are representative of at least 3 independent experiments."}}, "data": [{"molecule": "CCCc1nn(C)c2c(=O)[nH]c(-c3cc(S(=O)(=O)N4CCNCC4)ccc3OCC)nc12", "note": "[desmethyl-sildenafil, reference compound]", "values": [{"measurement": "entry from the gut into plasma, dose curve", "setting": "[1]", "result": "increased dramatically in the plasma"}]}, {"molecule": "CCCc1nn(C)c2c(=O)[nH]c(-c3cc(S(=O)(=O)N4CCN(C)CC4)ccc3OCC)nc12", "note": "[sildenafil, reference compound]", "values": [{"measurement": "total Ki67 positive cells in colon epithelium", "setting": "colon epithelium", "result": 15, "unit": "%"}]}, {"molecule": "acetyl-sildenafil", "values": [{"measurement": "potency of PDE5 inhibitor activity relative to sildenafil (VASP phosphorylation)", "setting": "PDE5", "result": "equally potent as the parent compound"}]}]}
